# In paper PMC8815882, “Screening the pandemic response box identified benzimidazole carbamates, Olorofim and ravuconazole as promising drug candidates for the treatment of eumycetoma” (PLoS Neglected Tropical Diseases, 2022):
# Where two headings read alike, the source gives them in different places.
# How the values were obtained:
# [1] = system: M. tropicana strain CBS206.47; test: CLSI M38-A2 based in vitro susceptibility screening at 25 μM; type: cell-based, Madurella tropicana; details: selected if >75% (resazurin) or >80% (XTT) fungal growth inhibited
# [2] = system: F. senegalensis strain CBS132257; test: as above; type: cell-based, Falciformispora senegalensis; details: selected if >75% (resazurin) or >80% (XTT) fungal growth inhibited
# M. mycetomatis MM55 = test: IC50 determination, 2-fold dilution series 16 to 0.03125 μM; type: cell-based, Madurella mycetomatis; details: for IC50 / IC90: Madurella mycetomatis
# [3] = system: M. mycetomatis genome strain MM55; test: CLSI M38-A2 based in vitro susceptibility screening (XTT or resazurin), growth at fixed concentration; type: cell-based, Madurella mycetomatis; details: for Inhibits growth of Madurella mycetomatis at 25 μM: selected if >75% (resazurin) or >80% (XTT) fungal growth inhibited
# [4] = system: Me. romeroi strain CBS128765; test: CLSI M38-A2 based in vitro susceptibility screening at 25 μM; type: cell-based, Medicopsis romeroi; details: selected if >75% (resazurin) or >80% (XTT) fungal growth inhibited
# [5] = system: M. pseudomycetomatis strain Mex2A; test: as above; type: cell-based, Madurella pseudomycetomatis; details: selected if >75% (resazurin) or >80% (XTT) fungal growth inhibited
# [6] = system: ten different M. mycetomatis isolates; test: MIC / MIC50 determination (XTT) in ten M. mycetomatis isolates; type: cell-based, Madurella mycetomatis; details: Madurella mycetomatis
# [7] = system: M. mycetomatis isolate MM55; test: M. mycetomatis grain infection model in G. mellonella larvae, survival; type: in vivo, Galleria mellonella; design: In vivo efficacy, Larvae survival %: concentration or dose not given beside the values
# [8] = Madurella mycetomatis, replicate A, read-out: Percentage survival at 25um, 25 um A
# [9] = Madurella mycetomatis, replicate B, read-out: Percentage survival at 25um, 25 uM B
# [10] = Madurella mycetomatis, replicate C, read-out: Percentage survival at 25um, 25 uM C
structure (smiles),measurement,setting,value
CCC(C)NCC(O)Cn1c2ccc(Cl)cc2c2cc(Cl)ccc21 (stereo not shown) [MMV1578570],Inhibits growth of Madurella tropicana at 25 μM,[1],inhibit the growth
same,Inhibits growth of Falciformispora senegalensis at 25 μM,[2],inhibit the growth
same,Drug static or cidal,M. mycetomatis MM55,Static
same,IC50,"M. mycetomatis MM55; MM55, mean of three replicates, read-out: IC50 mean",17.1 µM
same,IC50,"M. mycetomatis MM55; MM55, replicate 1, read-out: IC50 1 um",21.7 µM
same,IC90,"M. mycetomatis MM55; MM55, replicate 1, read-out: IC90 1 um",> 25 µM
same,IC50,"M. mycetomatis MM55; MM55, replicate 2, read-out: IC50 2 um",17.2 µM
same,IC90,"M. mycetomatis MM55; MM55, replicate 2, read-out: IC90 2 um",24.2 µM
same,IC50,"M. mycetomatis MM55; MM55, replicate 3, read-out: IC50 3 um",12.5 µM
same,IC90,"M. mycetomatis MM55; MM55, replicate 3, read-out: IC90 3 um",21.6 µM
same,Inhibits growth of Madurella mycetomatis at 25 μM,[3],inhibit the growth
same,activity at 25 µM,"[3]; Madurella mycetomatis, mean of three replicates, read-out: Percentage survival at 25um, 25 uM mean",7.02%
same,activity at 25 µM,[3]; [8],9.54%
same,activity at 25 µM,[3]; [9],-1.08%
same,activity at 25 µM,[3]; [10],12.6%
same,activity at 100 µM,"[3]; Madurella mycetomatis, 100 uM, mean of three replicates, read-out: Percentage survival at 100um, 100 uM mean",3.38%
same,activity at 100 µM,"[3]; Madurella mycetomatis, 100 uM, replicate 1, read-out: Percentage survival at 100um, 100 uM A (first replicate column)",1.05%
same,Percent fungal survival at 100 µM,"[3]; Madurella mycetomatis, 100 uM, replicate 2, read-out: Percentage survival at 100um, 100 uM A (second replicate column)",3.75%
same,activity at 100 µM,"[3]; Madurella mycetomatis, 100 uM, replicate 3, read-out: Percentage survival at 100um, 100 uM A (third replicate column)",5.34%
same,Inhibits growth of Medicopsis romeroi at 25 μM,[4],inhibit the growth
same,Inhibits growth of Madurella pseudomycetomatis at 25 μM,[5],inhibit the growth
"COC(=O)Nc1nc2ccc(Sc3ccccc3)cc2[nH]1 [MMV003143, Fenbendazole]",Inhibits growth of Madurella tropicana at 25 μM,[1],inhibit the growth
same,MIC50,"[6]; Table 3 and Fig 5, benzimidazole carbamates, M. mycetomatis, read-out: MIC50",0.5 µM
same,MIC50,"[6]; median MIC over ten M. mycetomatis isolates, no asterisk, read-out: MIC50",2 µM
same,MIC50,"[6]; over the isolates tested, read-out: MIC50 mean",0.5 µM
same,MIC,"[6]; isolate CBS247.48, read-out: MIC CBS247.48",0.5 µM
same,MIC,"[6]; isolate MM14, read-out: MIC MM14",0.5 µM
same,MIC,"[6]; isolate MM45, read-out: MIC MM45",0.5 µM
same,MIC,"[6]; isolate MM55, read-out: MIC MM55",0.5 µM
same,MIC,"[6]; isolate P1, read-out: MIC P1",0.5 µM
same,MIC,"[6]; isolate ParijsAl1, read-out: MIC ParijsAl1",0.5 µM
same,MIC,"[6]; isolate Peru72012, read-out: MIC Peru72012",0.5 µM
same,MIC,"[6]; isolate So1, read-out: MIC So1",2 µM
same,MIC,"[6]; isolate i1, read-out: MIC i1",0.25 µM
same,MIC,"[6]; isolate i11, read-out: MIC i11",1 µM
same,Inhibits growth of Falciformispora senegalensis at 25 μM,[2],inhibit the growth
same,Drug static or cidal,M. mycetomatis MM55,Static
same,IC50,"M. mycetomatis MM55; MM55, Table 2, M. mycetomatis MM55, read-out: IC50",2.66 µM
same,IC50,"M. mycetomatis MM55; MM55, Table 3, benzimidazole carbamates, M. mycetomatis, read-out: IC50",2.66 µM
same,IC50,"M. mycetomatis MM55; MM55, mean, read-out: IC50 mean",2.66 µM
same,IC90,"M. mycetomatis MM55; MM55, read-out: IC90 mean",9.09 µM
same,IC50,"M. mycetomatis MM55; MM55, replicate 1, read-out: IC50 1",2.58 µM
same,IC90,"M. mycetomatis MM55; MM55, replicate 1, read-out: IC90 1",17 µM
same,IC50,"M. mycetomatis MM55; MM55, replicate 2, read-out: IC50 2",2.52 µM
same,IC90,"M. mycetomatis MM55; MM55, replicate 2, read-out: IC90 2",4.6 µM
same,IC50,"M. mycetomatis MM55; MM55, replicate 3, read-out: IC50 3",2.88 µM
same,IC90,"M. mycetomatis MM55; MM55, replicate 3, read-out: IC90 3",5.68 µM
same,Inhibits growth of Madurella mycetomatis at 25 μM,[3],inhibit the growth
same,activity at 25 µM,"[3]; Madurella mycetomatis, mean, read-out: Percentage survival at 25um, 25 uM mean",2.38%
same,activity at 25 µM,[3]; [8],-0.759%
same,activity at 25 µM,[3]; [9],3.53%
same,activity at 25 µM,[3]; [10],4.38%
same,activity at 100 µM,"[3]; Madurella mycetomatis, 100 uM, mean, read-out: Percentage survival at 100um, 100 uM mean",7.16%
same,activity at 100 µM,"[3]; Madurella mycetomatis, 100 uM, replicate (first column), read-out: Percentage survival at 100um, 100 uM A",0.376%
same,activity at 100 µM,"[3]; Madurella mycetomatis, 100 uM, replicate (second column), read-out: Percentage survival at 100um, 100 uM A",9.19%
same,activity at 100 µM,"[3]; Madurella mycetomatis, 100 uM, replicate (third column), read-out: Percentage survival at 100um, 100 uM A",11.9%
same,Inhibits growth of Medicopsis romeroi at 25 μM,[4],inhibit the growth
same,Larvae survival rate on day ten,"[7]; 20 μM per larvae at 4, 28, 52 h after infection, day ten",24.4%
same,Effect on larvae survival Day 4 (words),"[7]; 20 μM per larvae, vs infected control, day four",Increase survival
same,Effect on larvae survival Day 10 (words),"[7]; 20 μM per larvae, vs infected control, day ten",Increase survival
same,Effect on larvae survival Day 10 (words),"[7]; 20 μM per larvae, vs infected control, day ten, listed as fenbendazole",able to increase larvae survival
same,"In vivo efficacy, Enhanced survival compared to control?",[7]; in vivo,yes *
same,"In vivo efficacy, Larvae survival %",[7]; in vivo,24.4%
same,Inhibits growth of Madurella pseudomycetomatis at 25 μM,[5],inhibit the growth
OC(Cn1cncn1)(Cn1cncn1)c1ccc(F)cc1F [fluconazole],Inhibits growth of Madurella tropicana at 25 μM,[1],not M. mycetomatis and M. tropicana
same,Inhibits growth of Madurella mycetomatis at 25 μM,[3],not M. mycetomatis and M. tropicana
same,Inhibits growth of Madurella pseudomycetomatis at 25 μM,[5],inhibit the growth
